pIC50: −log10 of the molar value. ≈ marks a conversion by molar mass, not a printed value.
Assays:
Staphylococcus aureus [1] = assay: Antimicrobial activity against methicillin-resistant Staphylococcus aureus ATCC 43300; type: functional
Proteus vulgaris = assay: Antimicrobial activity against Proteus vulgaris ATCC 3851; type: functional
Staphylococcus aureus [2] = assay: Antimicrobial activity against methicillin-resistant Staphylococcus aureus ATCC 700788; type: functional
Isocitrate lyase = Isocitrate lyase (Candida albicans, UniProt Q9P8Q7); assay: Inhibition of Candida albicans isocitrate lyase
Salmonella typhimurium = assay: Antimicrobial activity against Salmonella Typhimurium ATCC 14028; type: functional, Salmonella enterica subsp. enterica serovar Typhimurium; details: Salmonella enterica
Escherichia coli = assay: Antimicrobial activity against Escherichia coli ATCC 11775; type: functional
Staphylococcus aureus [3] = assay: Antimicrobial activity against Staphylococcus aureus ATCC 65389; type: functional
Micrococcus luteus = assay: Antimicrobial activity against Micrococcus luteus IFC12708; type: functional
K562 = assay: Cytotoxicity against human K562 cells by MTT assay; type: functional; details: read-out: LC50 (the source's name)
Staphylococcus aureus [4] = assay: Antimicrobial activity against methicillin-resistant Staphylococcus aureus ATCC 700787; type: functional
Bacillus subtilis = assay: Antimicrobial activity against Bacillus subtilis ATCC 6633; type: functional

Isocitrate lyase, sequence (Q9P8Q7 whole entry): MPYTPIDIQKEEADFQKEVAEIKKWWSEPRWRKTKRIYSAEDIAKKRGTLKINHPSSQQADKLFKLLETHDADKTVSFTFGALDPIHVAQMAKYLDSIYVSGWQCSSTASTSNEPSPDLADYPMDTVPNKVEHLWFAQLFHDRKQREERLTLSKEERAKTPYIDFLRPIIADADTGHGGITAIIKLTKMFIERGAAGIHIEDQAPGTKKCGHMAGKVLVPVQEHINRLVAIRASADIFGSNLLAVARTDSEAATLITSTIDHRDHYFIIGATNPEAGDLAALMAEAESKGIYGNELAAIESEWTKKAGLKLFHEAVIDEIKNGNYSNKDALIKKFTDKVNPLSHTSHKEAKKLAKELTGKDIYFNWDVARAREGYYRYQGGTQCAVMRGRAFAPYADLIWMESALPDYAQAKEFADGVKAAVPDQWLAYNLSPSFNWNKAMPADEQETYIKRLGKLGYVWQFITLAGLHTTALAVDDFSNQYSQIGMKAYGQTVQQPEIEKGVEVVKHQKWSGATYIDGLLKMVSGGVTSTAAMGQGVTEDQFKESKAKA

Row | SMILES | MIC (Staphylococcus aureus [1]) | MIC (Proteus vulgaris) | MIC (Staphylococcus aureus [2]) | pIC50 (Isocitrate lyase) | MIC (Salmonella typhimurium) | MIC (Escherichia coli) | MIC (Staphylococcus aureus [3]) | MIC (Micrococcus luteus) | CC50 (K562) | MIC (Staphylococcus aureus [4]) | MIC (Bacillus subtilis)
1 | COC(=O)C(C)(O)[C@@](O)(C[C@H](C)CC/C=C(/C)CC/C=C(/C)CCCc1ccoc1)C(=O)OC (stereo not given in full) | > 100 µg/mL | > 100 µg/mL | > 100 µg/mL | 3.60 | > 100 µg/mL | > 100 µg/mL | > 100 µg/mL | 50 µg/mL (≈ 104 µM) | 46 µg/mL (≈ 96.1 µM) | > 100 µg/mL | > 100 µg/mL
2 | CC1=C(O)/C(=C/[C@H](C)CCC/C(C)=C/CC/C(C)=C/CCC2=CC(O)OC2=O)OC1=O (stereo not given in full) | > 100 µg/mL | > 100 µg/mL | > 100 µg/mL | 4.54 | > 100 µg/mL | > 100 µg/mL | > 100 µg/mL | 50 µg/mL (≈ 116 µM) | > 100 µg/mL | > 100 µg/mL | > 100 µg/mL
3 | C=C(CC(=O)O)C(=O)O [ITACONATE] | – | – | – | 4.42 | – | – | – | – | – | – | –
4 | CC1=C(O)/C(=C/[C@H](C)CCC/C(C)=C/CCC(C)(O)CCCc2ccoc2)OC1=O (stereo not given in full) | 100 µg/mL (≈ 240 µM) | > 100 µg/mL | > 100 µg/mL | 4.25 | > 100 µg/mL | > 100 µg/mL | > 100 µg/mL | 100 µg/mL (≈ 240 µM) | > 100 µg/mL | > 100 µg/mL | > 100 µg/mL
5 | CC1=C(O)/C(=C/[C@H](C)CC/C=C(/C)CC/C=C(/C)CCCC2=CC(O)OC2=O)OC1=O (stereo not given in full) | > 100 µg/mL | > 100 µg/mL | > 100 µg/mL | – | > 100 µg/mL | > 100 µg/mL | > 100 µg/mL | 100 µg/mL (≈ 232 µM) | > 100 µg/mL | > 100 µg/mL | > 100 µg/mL
6 | CC1=C(O)/C(=C/[C@H](C)CC/C=C(/C)CC/C=C(/C)CCCc2ccoc2)OC1=O | 6.25 µg/mL (≈ 15.7 µM) | 6.25 µg/mL (≈ 15.7 µM) | 12.5 µg/mL (≈ 31.4 µM) | 4.09 | 6.25 µg/mL (≈ 15.7 µM) | > 100 µg/mL | 3.12 µg/mL (≈ 7.84 µM) | 3.12 µg/mL (≈ 7.84 µM) | 62 µg/mL (≈ 156 µM) | 6.25 µg/mL (≈ 15.7 µM) | 3.12 µg/mL (≈ 7.84 µM)
7 | COC(=O)C(C)(O)[C@](O)(C[C@H](C)CC/C=C(/C)CC/C=C(/C)CCCC1=CCN(CC(=O)O)C1=O)C(=O)OC (stereo not given in full) | > 100 µg/mL | > 100 µg/mL | > 100 µg/mL | 3.45 | > 100 µg/mL | > 100 µg/mL | > 100 µg/mL | > 100 µg/mL | > 100 µg/mL | > 100 µg/mL | > 100 µg/mL
8 | COC(=O)C(C)(O)[C@](O)(C[C@H](C)CCC/C(C)=C/CC/C(C)=C/CCC1=CCN(CC(=O)O)C1=O)C(=O)OC (stereo not given in full) | > 100 µg/mL | > 100 µg/mL | > 100 µg/mL | < 3.44 | > 100 µg/mL | > 100 µg/mL | > 100 µg/mL | > 100 µg/mL | > 100 µg/mL | > 100 µg/mL | > 100 µg/mL
9 | CC1=C(O)/C(=C/[C@H](C)CCC/C(C)=C/CC/C(C)=C/CCc2ccoc2)OC1=O | 50 µg/mL (≈ 125 µM) | 12.5 µg/mL (≈ 31.4 µM) | 50 µg/mL (≈ 125 µM) | 4.09 | 25 µg/mL (≈ 62.7 µM) | > 100 µg/mL | 12.5 µg/mL (≈ 31.4 µM) | 12.5 µg/mL (≈ 31.4 µM) | 39 µg/mL (≈ 97.9 µM) | 50 µg/mL (≈ 125 µM) | 6.25 µg/mL (≈ 15.7 µM)
10 | C/C(=C/CC[C@@H](C)CC(=O)O)CC/C=C(/C)CCCc1ccoc1 | 12.5 µg/mL (≈ 37.6 µM) | 25 µg/mL (≈ 75.2 µM) | 25 µg/mL (≈ 75.2 µM) | 3.62 | 12.5 µg/mL (≈ 37.6 µM) | > 100 µg/mL | 25 µg/mL (≈ 75.2 µM) | 6.25 µg/mL (≈ 18.8 µM) | > 100 µg/mL | 25 µg/mL (≈ 75.2 µM) | 25 µg/mL (≈ 75.2 µM)
11 | COC1C=C(CCC/C(C)=C\CC/C(C)=C\CC[C@@H](C)/C=C2\OC(=O)C(C)=C2O)C(OC)O1 (stereo not given in full) | 100 µg/mL (≈ 217 µM) | > 100 µg/mL | 100 µg/mL (≈ 217 µM) | 4.02 | > 100 µg/mL | > 100 µg/mL | 100 µg/mL (≈ 217 µM) | 50 µg/mL (≈ 109 µM) | 83 µg/mL (≈ 180 µM) | 100 µg/mL (≈ 217 µM) | 50 µg/mL (≈ 109 µM)
12 | CC1(C)S[C@@H]2[C@H](NC(=O)[C@H](N)c3ccccc3)C(=O)N2[C@H]1C(=O)O [AMPICILLIN] | – | 3.12 µg/mL (≈ 8.94 µM) | – | – | 1.56 µg/mL (≈ 4.47 µM) | 1.56 µg/mL (≈ 4.47 µM) | 1.56 µg/mL (≈ 4.47 µM) | 12.5 µg/mL (≈ 35.8 µM) | – | – | 3.12 µg/mL (≈ 8.94 µM)
13 | Cc1onc(-c2ccccc2)c1C(=O)N[C@@H]1C(=O)N2[C@@H]1SC(C)(C)[C@@H]2C(=O)O [OXACILLIN] | 25 µg/mL (≈ 62.3 µM) | – | 25 µg/mL (≈ 62.3 µM) | – | – | – | – | – | – | 50 µg/mL (≈ 125 µM) | –
14 | C/C(=C/CC[C@@H](C)CC(=O)O)CC/C=C(/C)CCCC1=CC(=O)OC1=O | > 100 µg/mL | > 100 µg/mL | > 100 µg/mL | 4.26 | > 100 µg/mL | > 100 µg/mL | > 100 µg/mL | 100 µg/mL (≈ 276 µM) | > 100 µg/mL | > 100 µg/mL | > 100 µg/mL
15 | CC1=C(O)/C(=C/[C@H](C)CC/C=C(/C)CC/C=C(/C)CCCC2=CC(=O)OC2O)OC1=O (stereo not given in full) | 100 µg/mL (≈ 232 µM) | > 100 µg/mL | > 100 µg/mL | 4.04 | > 100 µg/mL | > 100 µg/mL | > 100 µg/mL | 50 µg/mL (≈ 116 µM) | > 100 µg/mL | 100 µg/mL (≈ 232 µM) | > 100 µg/mL
16 | C/C(=C\CCc1ccoc1)CC/C=C(\C)CCC[C@@H](C)CC(=O)O | 25 µg/mL (≈ 75.2 µM) | 50 µg/mL (≈ 150 µM) | > 100 µg/mL | < 3.22 | 50 µg/mL (≈ 150 µM) | > 100 µg/mL | 100 µg/mL (≈ 301 µM) | 12.5 µg/mL (≈ 37.6 µM) | > 100 µg/mL | 100 µg/mL (≈ 301 µM) | > 100 µg/mL
17 | COC(=O)C(C)(O)[C@](O)(C[C@H](C)CCC/C(C)=C/CC/C(C)=C/CCc1ccoc1)C(=O)OC (stereo not given in full) | > 100 µg/mL | > 100 µg/mL | > 100 µg/mL | < 3.38 | > 100 µg/mL | > 100 µg/mL | > 100 µg/mL | 100 µg/mL (≈ 209 µM) | 20 µg/mL (≈ 41.8 µM) | > 100 µg/mL | > 100 µg/mL
18 | COC(=O)C(C)(O)[C@](O)(C[C@H](C)CC/C=C(/C)CC/C=C(/C)CCCc1ccoc1)C(=O)OC (stereo not given in full) | > 100 µg/mL | > 100 µg/mL | > 100 µg/mL | 3.73 | > 100 µg/mL | > 100 µg/mL | > 100 µg/mL | > 100 µg/mL | 34 µg/mL (≈ 71 µM) | > 100 µg/mL | > 100 µg/mL
19 | COC1C=C(CC/C=C(\C)CC/C=C(\C)CCC[C@@H](C)/C=C2\OC(=O)C(C)=C2O)C(OC)O1 (stereo not given in full) | 50 µg/mL (≈ 109 µM) | 100 µg/mL (≈ 217 µM) | 100 µg/mL (≈ 217 µM) | 4.04 | > 100 µg/mL | > 100 µg/mL | 100 µg/mL (≈ 217 µM) | 50 µg/mL (≈ 109 µM) | 80 µg/mL (≈ 174 µM) | 50 µg/mL (≈ 109 µM) | 50 µg/mL (≈ 109 µM)
